US7578968B1, “Microbiological control in oil or gas field operations” (Albemarle Corporation, priority 2002, dated 2009)

Assays:
Type in all cases: physicochemical
[1] = Reversion of PBTC to orthophosphate by oxidizing biocides; conditions: for Phosphate (orthophosphate from PBTC): oxidant 10 ppm as Cl2, pH 9.1, 23° C.
Description: (§1) The oxidants studied consisted of WELLGUARD 909 biocide, bleach (NaOCl), and activated sodium bromide (NaOCl and NaBr). The WELLGUARD 909 biocide and bleach were added directly. Activated sodium bromide was prepared in situ by introducing 20 ppm bromide ion to the stock solution followed by addition of bleach. The phosphonates used in this work consisted of AMP (aminomethylene phosphonic acid), HEDP (hydroxyethylidene diphosphonic acid), and PBTC (phosphonobutanetricarboxylic acid). These materials were commercial samples (Mayoquest 1320, 1500, and 2100, respectively) obtained from Callaway Chemical Co. (Smyrna, Ga.).
(§2) Solutions consisting of 5 ppm scale inhibitor (as active phosphonate) in the presence of 10 ppm oxidant (as Cl2) were prepared as follows. To 900 mL deionized water were added appropriate stock solutions containing phosphonate, alkalinity (NaHCO3), and calcium hardness (CaCl2). The pH was adjusted to 9.1 with 5% aq. NaOH and diluted up to 1 L in a dark amber bottle. A dose of oxidant was added to achieve a residual of 10 ppm. The solutions were then periodically monitored for phosphonate reversion by determining the reversion to orthophosphate (Hach method 490). The oxidant residual was also periodically monitored using the DPD method (Hach method 80). All of this work was performed at room temperature (23° C.). The initial active phosphonate content was confirmed by conversion to orthophosphate via UV/persulfate oxidation followed by a conventional phosphate analysis (Hach method 501). A conversion factor was applied to the phosphate measurement to determine the initial amount of active phosphonate present as follows: AMP, 1.05; HEDP, 1.085; PBTC, 2.85.

[2] = Comparative study of oxidation reduction potentials (ORP) and halogen residuals in cooling tower water
Description: The oxidants studied consisted of WELLGUARD 909 biocide, STABREX biocide (stabilized NaBr+NaOCl), bleach (NaOCl), and activated sodium bromide (NaOCl and NaBr).
Stock solutions of the biocides were prepared at 1000 ppm halogen residual concentration (as Cl2) in brown glass bottles using deionized water for dilution. Solution activities were confirmed using the DPD method and a Hach Co. (Loveland, Colo.) DR/2000 spectrophotometer.
Aliquots of the stock solutions above were added to 1000 mL of cooling tower water that had been pulled from a cooling tower. A 1000 mL beaker was charged with 1000 mL of cooling tower water and stirred while measuring ORP with a Brinkmann Metrohm 716 DMS Titrino automatic titrator. It took about 45 minutes for the sample to equilibrate—the ORP reading would gradually decline to a reading of about 300 mV. The sample was deemed to have equilibrated when the change in the ORP reading was less than or equal to 1 unit/minute. At this point, 0.5 g of stock solution (nominal halogen residual=0.5 ppm) was added and the mixture allowed to equilibrate once again. A sample was pulled to determine free and total halogen residuals and then 0.5 g additional stock solution was added and the process repeated. The following aliquots were added during the experiment: 0.5 g, 1.0 g, 2.0 g, 3.0 g, 4.0 g, 6.0 g, 8.0 g, 10.0 g.

[3] = Reversion of HEDP to orthophosphate by oxidizing biocides; conditions: for Phosphate (orthophosphate from HEDP): oxidant 10 ppm as Cl2, pH 9.1, 23° C.
Description: as §1, §2

[4] = Reversion of AMP to orthophosphate by oxidizing biocides; conditions: for Phosphate (orthophosphate from AMP): oxidant 10 ppm as Cl2, pH 9.1, 23° C.
Description: as §1, §2

[5] = nominal free/total ppm (as Cl2): STABREX 0.49/0.51, WELLGUARD 909 0.42/0.52, Bleach 0.50, Activated NaBr 0.48/0.52
[6] = nominal free/total ppm: STABREX 0.98/1.04, WELLGUARD 909 0.85/1.04, Bleach 1.00, Activated NaBr 0.97/1.05
[7] = nominal free/total ppm: STABREX 2.00/2.11, WELLGUARD 909 1.72/2.12, Bleach 2.04, Activated NaBr 1.97/2.14
[8] = nominal free/total ppm: STABREX 3.04/3.20, WELLGUARD 909 2.62/3.22, Bleach 3.09, Activated NaBr 2.99/3.25
[9] = nominal free/total ppm: STABREX 4.09/4.32, WELLGUARD 909 3.53/4.20, Bleach 4.17, Activated NaBr 4.03/4.39
[10] = nominal free/total ppm: STABREX 6.26/6.60, WELLGUARD 909 5.40/6.63, Bleach 6.37, Activated NaBr 6.17/6.71
[11] = nominal free/total ppm: STABREX 8.47/8.94, WELLGUARD 909 7.31/8.98, Bleach 8.63, Activated NaBr 8.35/9.08
[12] = nominal free/total ppm: STABREX 10.74/11.33, WELLGUARD 909 9.26/11.38, Bleach 10.93, Activated NaBr 10.58/11.51

Actual Residual, ppm Free [2, 5]: 0.13 ppm
Actual Residual, ppm Total [2, 5]: 0.34 ppm
ORP Reading, mV [2, 5]: 500 mV
Actual Residual, ppm Free [2, 6]: 0.29 ppm
Actual Residual, ppm Total [2, 6]: 0.48 ppm
ORP Reading, mV [2, 6]: 620 mV
Actual Residual, ppm Free [2, 7]: 1.12 ppm
Actual Residual, ppm Total [2, 7]: 1.29 ppm
ORP Reading, mV [2, 7]: 659 mV
Actual Residual, ppm Free [2, 8]: 1.88 ppm
Actual Residual, ppm Total [2, 8]: 2.08 ppm
ORP Reading, mV [2, 8]: 672 mV
Actual Residual, ppm Free [2, 9]: 2.98 ppm
Actual Residual, ppm Total [2, 9]: 3.43 ppm
ORP Reading, mV [2, 9]: 678 mV
Actual Residual, ppm Free [2, 10]: 5.24 ppm
Actual Residual, ppm Total [2, 10]: 5.68 ppm
ORP Reading, mV [2, 10]: 683 mV
Actual Residual, ppm Free [2, 11]: 7.68 ppm
Actual Residual, ppm Total [2, 11]: 8.16 ppm
ORP Reading, mV [2, 11]: 685 mV
Actual Residual, ppm Free [2, 12]: 10.08 ppm
Actual Residual, ppm Total [2, 12]: 10.78 ppm
ORP Reading, mV [2, 12]: 689 mV
Structure (SMILES): [Na+].[O-]Cl [Bleach, NaOCl]
residual oxidant (as Cl2) ([1]; PBTC 5 ppm, initial oxidant 10 ppm as Cl2, pH 9.1, 23° C., 390 minutes (second 390 line)): 9.5 ppm
Phosphate (orthophosphate from PBTC) ([1]; PBTC 5 ppm, 30 minutes): 0 ppm
Phosphate (orthophosphate from PBTC) ([1]; PBTC 5 ppm, 60 minutes): 0 ppm
Phosphate (orthophosphate from PBTC) ([1]; PBTC 5 ppm, 90 minutes): 0 ppm
Phosphate (orthophosphate from PBTC) ([1]; PBTC 5 ppm, 120 minutes): 0 ppm
Phosphate (orthophosphate from PBTC) ([1]; PBTC 5 ppm, 150 minutes): 0 ppm
Phosphate (orthophosphate from PBTC) ([1]; PBTC 5 ppm, 180 minutes): 0 ppm
Phosphate (orthophosphate from PBTC) ([1]; PBTC 5 ppm, 210 minutes): 0.12 ppm
Phosphate (orthophosphate from PBTC) ([1]; PBTC 5 ppm, 270 minutes): 0.16 ppm
Phosphate (orthophosphate from PBTC) ([1]; PBTC 5 ppm, 330 minutes): 0.05 ppm
Phosphate (orthophosphate from PBTC) ([1]; PBTC 5 ppm, 360 minutes): 0.02 ppm
Phosphate (orthophosphate from PBTC) ([1]; PBTC 5 ppm, 390 minutes (first 390 line)): 0.02 ppm
Phosphate (orthophosphate from PBTC) ([1]; PBTC 5 ppm, 1360 minutes): 0.08 ppm
average amounts of phosphonate reversion ([1]; PBTC, after 3½ hours contact and beyond): 5.2%
Phosphate, average ([1]; PBTC, average 210-1360 minutes, maximum liberable phosphate: WELLGUARD 909 1.72, Activated NaBr 1.82, Bleach 1.44 ppm): 0.075 ppm
loss in biocide residual ([2]; conditions of Table 3): significant loss of residual during initial stages of biocide addition
Cl2 (oxidant residual) ([3]; HEDP 5 ppm, initial oxidant 10 ppm as Cl2, pH 9.1, 23° C., 400 minutes): 10.6 ppm
Phosphate (orthophosphate from HEDP) ([3]; HEDP 5 ppm, 20 minutes): 0 ppm
Phosphate (orthophosphate from HEDP) ([3]; HEDP 5 ppm, 40 minutes): 0 ppm
Phosphate (orthophosphate from HEDP) ([3]; HEDP 5 ppm, 70 minutes): 0.2 ppm
Phosphate (orthophosphate from HEDP) ([3]; HEDP 5 ppm, 100 minutes): 0.25 ppm
Phosphate (orthophosphate from HEDP) ([3]; HEDP 5 ppm, 130 minutes): 0.31 ppm
Phosphate (orthophosphate from HEDP) ([3]; HEDP 5 ppm, 190 minutes): 0.61 ppm
Phosphate (orthophosphate from HEDP) ([3]; HEDP 5 ppm, 220 minutes): 0.65 ppm
Phosphate (orthophosphate from HEDP) ([3]; HEDP 5 ppm, 250 minutes): 0.39 ppm
Phosphate (orthophosphate from HEDP) ([3]; HEDP 5 ppm, 280 minutes): 0.41 ppm
Phosphate (orthophosphate from HEDP) ([3]; HEDP 5 ppm, 310 minutes): 0.58 ppm
Phosphate (orthophosphate from HEDP) ([3]; HEDP 5 ppm, 340 minutes): 0.65 ppm
Phosphate (orthophosphate from HEDP) ([3]; HEDP 5 ppm, 370 minutes): 0.84 ppm
Phosphate (orthophosphate from HEDP) ([3]; HEDP 5 ppm, 400 minutes): 0.65 ppm
Phosphate (orthophosphate from HEDP) ([3]; HEDP 5 ppm, 460 minutes): 0.95 ppm
Phosphate (orthophosphate from HEDP) ([3]; HEDP 5 ppm, 520 minutes, maximum liberable phosphate: WELLGUARD 909 4.20, Activated NaBr 4.40, Bleach 4.80 ppm): 0.94 ppm
relative amounts of reversion ([3]; HEDP, after 520 minutes): 19.6%
Cl2 (oxidant residual) ([4]; AMP 5 ppm, initial oxidant 10 ppm as Cl2, pH 9.1, 23° C., 460 minutes): 9.4 ppm
Phosphate (orthophosphate from AMP) ([4]; AMP 5 ppm, 20 minutes): 0.35 ppm
Phosphate (orthophosphate from AMP) ([4]; AMP 5 ppm, 40 minutes): 0.7 ppm
Phosphate (orthophosphate from AMP) ([4]; AMP 5 ppm, 70 minutes): 0.53 ppm
Phosphate (orthophosphate from AMP) ([4]; AMP 5 ppm, 100 minutes): 0.75 ppm
Phosphate (orthophosphate from AMP) ([4]; AMP 5 ppm, 130 minutes): 0.8 ppm
Phosphate (orthophosphate from AMP) ([4]; AMP 5 ppm, 190 minutes): 0.77 ppm
Phosphate (orthophosphate from AMP) ([4]; AMP 5 ppm, 220 minutes): 0.59 ppm
Phosphate (orthophosphate from AMP) ([4]; AMP 5 ppm, 250 minutes): 0.64 ppm
Phosphate (orthophosphate from AMP) ([4]; AMP 5 ppm, 280 minutes): 0.83 ppm
Phosphate (orthophosphate from AMP) ([4]; AMP 5 ppm, 310 minutes): 0.82 ppm
Phosphate (orthophosphate from AMP) ([4]; AMP 5 ppm, 340 minutes): 0.8 ppm
Phosphate (orthophosphate from AMP) ([4]; AMP 5 ppm, 370 minutes): 0.81 ppm
Phosphate (orthophosphate from AMP) ([4]; AMP 5 ppm, 400 minutes): 0.79 ppm
Phosphate (orthophosphate from AMP) ([4]; AMP 5 ppm, 520 minutes): 0.97 ppm
Phosphate (orthophosphate from AMP) ([4]; AMP 5 ppm, 1360 minutes): 0.91 ppm
averaged amounts of phosphonate reversion ([4]; AMP, Table 4 averages): 18.7%
Phosphate, average ([4]; AMP, average 100-1360 minutes, maximum liberable phosphate: WELLGUARD 909 4.58, Activated NaBr 4.18, Bleach 4.22 ppm): 0.79 ppm
